In assay [1] the target is T1, preformed amyloid fibrils from TGFBIp611-633 N622K peptide (Homo sapiens, UniProt Q15582, N622K).
T1 construct: purchased Synpeptide Co Ltd, Shanghai, China; host or cells: synthetic peptide
The assay can be described thus: ThT fluorescence assay, dissolution of preformed amyloid fibrils. It is filed as biochemical. Particulars: TGFBIp-N622K preformed fibrils. How it is done:
(§1) The model peptides TGFBIp^611-633 G623R and TGFBIp^611-633 N622K were incubated in PBS for 24 hours for the TGFBIp^611-633 G623R peptide and 96 hours for the TGFBIp^611-633 N622K peptide, allowed to form uniform amyloid fibrils. The formation of amyloid fibrils was confirmed by (SEM) and CD spectroscopy.
The preformed amyloid fibrils were treated with taurine at a concentration of 200 mM and 320 mM for up to 72 hours, respectively. The preformed amyloid fibrils incubated with PBS were used as controls.
The samples were collected at 24 h, 48 h and 72 h after treatment for the TGFBIp^611-633 G623R peptides, and at 24 h, 48 h, 96 h and 144 h after treatment for the TGFBIp^611-633 N622K peptides. The samples were then treated with 30 μM ThT in PBS buffer at pH 5.5 in a 96-well microplate for ThT fluorescence assay. The microplate was excited at 445 nm and the resulting emission fluorescence at 485 nm was measured using a microplate reader.

The target in assay [2] is T1, preformed amyloid fibrils from TGFBIp611-633 N622K peptide. The assay can be described thus: Circular Dichroism assay, disaggregation of preformed amyloid fibrils. Particulars: TGFBIp-N622K preformed fibrils, listed as taurine. It is filed as biochemical. The procedure:
as §1
Circular Dichroism (CD) spectroscopy was performed to study the disaggregation of the preformed amyloid fibrils. The preformed amyloid fibrils were treated with taurine at a concentration of 200 mM and 320 mM in PBS buffer at pH 7.0 for 24 h, 48 h and 72 respectively. The treatment solutions were studied by far UV-CD assay.

The target in assay [3] is T2, TGFBIp611-633 G623R peptide (Homo sapiens, UniProt Q15582, G623R).
T2 construct: The 23-amino acid long peptide (TGFBIp 611-633 c.623 G>R) from the 4th FAS1 domain; purchased Synpeptide Co Ltd, Shanghai, China; host or cells: synthetic peptide
T2 sequence (Q15582 611-633 G623R limits assumed): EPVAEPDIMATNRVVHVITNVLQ
As to the kind of experiment: ThT fluorescence microscopy, inhibition of amyloid fibrillation. How it is done:
The inhibitory effects of the four osmolytes on amyloid fibrillation of the TGFBIp^611-633 G623R peptide were investigated further by fluorescence microscopy after ThT staining. The peptide samples collected at various time points above were incubated ThT at a ratio of 1:1 ratio in the dark for 30 minutes to obtain solutions for fluorescence microscopy. 25 μl of the solutions were taken on to slides with coverslips and visualized under a fluorescent microscope (Axiolmager Z1, Carl Zeiss, Oberkochen, Germany).
The inhibition effect of taurine on the amyloid fibrillation was investigated further by fluorescence microscopy after ThT staining. The samples collected at the various time points above were incubated ThT at a ratio of 1:1 ratio in the dark for 30 minutes to obtain solutions for fluorescence microscopy. 25 μl of the solutions were taken on to slides with coverslips and visualized under a fluorescent microscope.

T1 sequence (Q15582 611-633 N622K limits assumed): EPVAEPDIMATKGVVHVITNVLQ

In the case of `NCCS(=O)(=O)O` [Taurine, taurine], the “% Dissolution at final time point, ThT” value in assay [1] (200 mM) is 83%; in assay [1] (200 mM, listed as taurine), 83%; in assay [1] (320 mM), 88%; in assay [1] (320 mM, listed as taurine) it was 88%. Moreover, the “% Dissolution at final time point, CD” value in assay [2] (200 mM) came to 61%; in assay [2] (320 mM), 66%. The “fluorescent intensity under microscope” value in assay [3] (200 mM and 320 mM) is listed as “reduction in fluorescent intensity”. The “ThT fluorescence images, fluorescent spots” value in assay [3] (200 mM, 24 h to 72 h, versus PBS control) is given as “relatively smaller fluorescent spots even after 24 h”.

The record behind these values is US20220265591A1, “USE OF AN OSMOLYTE IN MANUFACTURE OF A MEDICAMENT FOR TREATMENT OF OCULAR DISORDERS” (SINGAPORE HEALTH SERVICES PTELTD, priority 2019, published 2022).
